In PMC6200358 (Science Advances, 2018):

Assays:
human CB1R = human CB1R (Homo sapiens, UniProt P21554); assay: [35S]GTPγS binding assay, CHO-hCB1 membranes; format: biochemical
human CB2R = human CB2R (Homo sapiens, UniProt P34972); assay: [35S]GTPγS binding assay, CHO-hCB2 membranes; format: biochemical
BALB/c mice = assay: Tetrad test; format: in vivo, mouse; details: pretreatment at 5 mg/kg

Sequence of human CB1R (P21554 whole entry): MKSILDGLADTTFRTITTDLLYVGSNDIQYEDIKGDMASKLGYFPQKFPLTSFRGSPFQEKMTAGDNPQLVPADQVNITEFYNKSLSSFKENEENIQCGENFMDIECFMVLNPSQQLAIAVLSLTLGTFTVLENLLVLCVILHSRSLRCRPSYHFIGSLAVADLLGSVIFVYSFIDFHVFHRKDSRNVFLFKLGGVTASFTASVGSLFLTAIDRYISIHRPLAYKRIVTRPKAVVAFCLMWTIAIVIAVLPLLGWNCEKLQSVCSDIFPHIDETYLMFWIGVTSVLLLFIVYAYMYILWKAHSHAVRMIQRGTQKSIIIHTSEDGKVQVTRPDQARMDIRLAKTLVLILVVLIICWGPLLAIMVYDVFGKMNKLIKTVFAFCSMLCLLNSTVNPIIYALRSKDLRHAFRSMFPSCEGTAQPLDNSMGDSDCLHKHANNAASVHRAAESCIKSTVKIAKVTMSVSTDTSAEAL
Sequence of human CB2R (P34972 whole entry): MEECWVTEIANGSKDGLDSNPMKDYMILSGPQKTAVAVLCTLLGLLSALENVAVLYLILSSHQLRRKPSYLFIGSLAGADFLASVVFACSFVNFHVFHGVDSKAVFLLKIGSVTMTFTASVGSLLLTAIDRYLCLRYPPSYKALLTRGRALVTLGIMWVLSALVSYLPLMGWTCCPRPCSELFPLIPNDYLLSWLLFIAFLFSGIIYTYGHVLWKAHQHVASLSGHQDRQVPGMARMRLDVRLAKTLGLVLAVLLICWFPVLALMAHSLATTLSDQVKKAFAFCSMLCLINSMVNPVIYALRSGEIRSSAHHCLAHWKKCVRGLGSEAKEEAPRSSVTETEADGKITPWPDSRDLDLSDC

Row | SMILES | CB1R agonist type (full or partial agonist) (human CB1R; [35S]GTPγS binding) | Emax (human CB1R; read-out: Receptor activation CB1R (Emax)) [%] | CB2R agonist type (full or partial agonist) (human CB2R; [35S]GTPγS binding) | Emax (human CB2R; read-out: Receptor activation CB2R (Emax)) [%] | Blockade of the tetrad effects of PET and THC diastereoisomers (BALB/c mice)
1 | CCCCCCC(C)(C)c1ccc([C@@H]2C[C@H](O)CC[C@H]2CCCO)c(O)c1 [CP55,940] | full | 173 ± 6 | full | 194 ± 5 | 
2 | Cc1c(C(=O)NN2CCCCC2)nn(-c2ccc(Cl)cc2Cl)c1-c1ccc(Cl)cc1 [rimonabant, Rimonabant] |  |  |  |  | fully abolished
